Experimental data as given in ChEMBL document CHEMBL3885881, “DrugMatrix”.

Species on record: Rattus norvegicus
Experiment: DrugMatrix - Regimen: Daily Repeat
Assay type: toxicity, organism-based, Sprague-Dawley
Parameters: regimen Daily Repeat, gender Male, age 6-8 weeks
Conditions: in vivo, po, 15 mg/kg, route oral GAVAGE, dose level Low, […]; for ABSOLUTE BASOPHIL / ABSOLUTE EOSINOPHIL / ABSOLUTE LYMPHOCYTE / ABSOLUTE MONOCYTE / ABSOLUTE SEGMENTED NEUTROPHIL / BASOPHIL / EOSINOPHIL / ERYTHROCYTE COUNT / HEMATOCRIT / HEMOGLOBIN / LEUKOCYTE COUNT / LYMPHOCYTE / MEAN CORPUSCULAR HEMOGLOBIN / MEAN CORPUSCULAR HEMOGLOBIN CONCENTRATION / MEAN CORPUSCULAR VOLUME / MONOCYTE / NEUTROPHIL / NUCLEATED RED BLOOD CELLS / PLATELET COUNT: tissue Blood; for ALANINE AMINOTRANSFERASE / ALBUMIN / ALKALINE PHOSPHATASE / ASPARTATE AMINOTRANSFERASE / BLOOD UREA NITROGEN / CARBON DIOXIDE / CHLORIDE / CHOLESTEROL / CREATINE PHOSPHOKINASE / CREATININE / GLUCOSE / LACTATE DEHYDROGENASE / LIPASE / PHOSPHORUS / POTASSIUM / SODIUM / TOTAL BILIRUBIN / TOTAL PROTEIN / URIC ACID: tissue Plasma

SMILES: CC(C)C(=O)Nc1ccc([N+](=O)[O-])c(C(F)(F)F)c1 [FLUTAMIDE]
- ABSOLUTE BASOPHIL (72 h, time 3 day): 0 CELLS/uL
- ABSOLUTE EOSINOPHIL (72 h, time 3 day): 10.67 CELLS/uL
- ABSOLUTE LYMPHOCYTE (72 h, time 3 day): 6470.33 CELLS/uL
- ABSOLUTE MONOCYTE (72 h, time 3 day): 86 CELLS/uL
- ABSOLUTE SEGMENTED NEUTROPHIL (72 h, time 3 day): 599.67 CELLS/uL
- BASOPHIL (72 h, time 3 day): 0%
- EOSINOPHIL (72 h, time 3 day): 0.33%
- ERYTHROCYTE COUNT (72 h, time 3 day): 5.25 x10E6/uL
- HEMATOCRIT (72 h, time 3 day): 32.9%
- HEMOGLOBIN (72 h, time 3 day): 13.03 G/DL
- LEUKOCYTE COUNT (72 h, time 3 day): 7.17 x10E3/uL
- LYMPHOCYTE (72 h, time 3 day): 91.67%
- MEAN CORPUSCULAR HEMOGLOBIN (72 h, time 3 day): 24.87 pg
- MEAN CORPUSCULAR HEMOGLOBIN CONCENTRATION (72 h, time 3 day): 39.6 G/DL
- MEAN CORPUSCULAR VOLUME (72 h, time 3 day): 62.8 fL
- MONOCYTE (72 h, time 3 day): 1%
- NEUTROPHIL (72 h, time 3 day): 7%
- NUCLEATED RED BLOOD CELLS (72 h, time 3 day): 0 /100WBC
- PLATELET COUNT (72 h, time 3 day): 851.33 x10E3/uL
- ALANINE AMINOTRANSFERASE (72 h, time 3 day): 92 u/L
- ALBUMIN (72 h, time 3 day): 3.97 G/DL
- ALKALINE PHOSPHATASE (72 h, time 3 day): 441.67 u/L
- ASPARTATE AMINOTRANSFERASE (72 h, time 3 day): 111 u/L
- BLOOD UREA NITROGEN (72 h, time 3 day): 12.33 mg/dL
- CARBON DIOXIDE (72 h, time 3 day): 27.67 mmol/L
- CHLORIDE (72 h, time 3 day): 95.5 MEQ/L
- CHOLESTEROL (72 h, time 3 day): 77.67 mg/dL
- CREATINE PHOSPHOKINASE (72 h, time 3 day): 476.67 u/L
- CREATININE (72 h, time 3 day): 0.33 mg/dL
- GLUCOSE (72 h, time 3 day): 152 mg/dL
- LACTATE DEHYDROGENASE (72 h, time 3 day): 156.33 u/L
- LIPASE (72 h, time 3 day): 13.67 u/L
- PHOSPHORUS (72 h, time 3 day): 9.97 mg/dL
- POTASSIUM (72 h, time 3 day): 5.27 MEQ/L
- SODIUM (72 h, time 3 day): 138.85 MEQ/L
- TOTAL BILIRUBIN (72 h, time 3 day): 0.17 mg/dL
- TOTAL PROTEIN (72 h, time 3 day): 5.23 G/DL
- URIC ACID (72 h, time 3 day): 0.7 mg/dL
- ABSOLUTE BASOPHIL (120 h, time 5 day): 0 CELLS/uL
- ABSOLUTE EOSINOPHIL (120 h, time 5 day): 0 CELLS/uL
- ABSOLUTE LYMPHOCYTE (120 h, time 5 day): 8137.67 CELLS/uL
- ABSOLUTE MONOCYTE (120 h, time 5 day): 25 CELLS/uL
- ABSOLUTE SEGMENTED NEUTROPHIL (120 h, time 5 day): 504 CELLS/uL
- BASOPHIL (120 h, time 5 day): 0%
- EOSINOPHIL (120 h, time 5 day): 0%
- ERYTHROCYTE COUNT (120 h, time 5 day): 6.06 x10E6/uL
- HEMATOCRIT (120 h, time 5 day): 36.17%
- HEMOGLOBIN (120 h, time 5 day): 13.93 G/DL
- LEUKOCYTE COUNT (120 h, time 5 day): 8.67 x10E3/uL
- LYMPHOCYTE (120 h, time 5 day): 94%
- MEAN CORPUSCULAR HEMOGLOBIN (120 h, time 5 day): 23.03 pg
- MEAN CORPUSCULAR HEMOGLOBIN CONCENTRATION (120 h, time 5 day): 38.53 G/DL
- MEAN CORPUSCULAR VOLUME (120 h, time 5 day): 59.7 fL
- MONOCYTE (120 h, time 5 day): 0.33%
- NEUTROPHIL (120 h, time 5 day): 5.67%
- NUCLEATED RED BLOOD CELLS (120 h, time 5 day): 0 /100WBC
- PLATELET COUNT (120 h, time 5 day): 1066.67 x10E3/uL
- ALANINE AMINOTRANSFERASE (120 h, time 5 day): 57 u/L
- ALBUMIN (120 h, time 5 day): 4.03 G/DL
- ALKALINE PHOSPHATASE (120 h, time 5 day): 326.67 u/L
- ASPARTATE AMINOTRANSFERASE (120 h, time 5 day): 78 u/L
- BLOOD UREA NITROGEN (120 h, time 5 day): 13.33 mg/dL
- CARBON DIOXIDE (120 h, time 5 day): 35.67 mmol/L
- CHLORIDE (120 h, time 5 day): 99.33 MEQ/L
- CHOLESTEROL (120 h, time 5 day): 75 mg/dL
- CREATINE PHOSPHOKINASE (120 h, time 5 day): 234.33 u/L
- CREATININE (120 h, time 5 day): 0.18 mg/dL
- GLUCOSE (120 h, time 5 day): 140 mg/dL
- LACTATE DEHYDROGENASE (120 h, time 5 day): 135.33 u/L
- LIPASE (120 h, time 5 day): 9.67 u/L
- PHOSPHORUS (120 h, time 5 day): 10.43 mg/dL
- POTASSIUM (120 h, time 5 day): 5.86 MEQ/L
- SODIUM (120 h, time 5 day): 143.57 MEQ/L
- TOTAL BILIRUBIN (120 h, time 5 day): 0.23 mg/dL
- TOTAL PROTEIN (120 h, time 5 day): 5.83 G/DL
- URIC ACID (120 h, time 5 day): 0.67 mg/dL
